Measured values published in patent publication US6056958A, “Method of treatment of arterial and venous thromboembolic disorders” (Dupont Pharmaceuticals, priority 1997, dated 2000).
pIC50: −log10 of the molar value. Non-standard residues stand in square brackets, D forms with d. Residues, ends and D or L forms follow the SMILES beside them. 3Amb = NCc1cccc(C(=O)O)c1

Legend:
[1] = system: Platelet Aggregation; assay: Platelet Aggregation Assay (in vitro, ADP-induced, platelet-rich plasma); format: cell-based, mongrel dogs or human
Method: Platelet Aggregation Assay
Venous blood was obtained from anesthetized mongrel dogs or from healthy human donors who were drug-free and aspirin-free for at least two weeks prior to blood collection. Blood was collected into citrated Vacutainer tubes. The blood was centrifuged for 15 minutes at 150× g (850 RPM in a Sorvall RT6000 Tabletop Centrifuge with H-1000 B rotor) at room temperature, and platelet-rich plasma (PRP) was removed. The remaining blood was centrifuged for 15 minutes at 1500× g ([…]) at room temperature, and platelet-poor plasma (PPP) was removed. Samples were assayed on an aggregometer (PAP-4 Platelet Aggregation Profiler), using PPP as the blank (100% transmittance). 200 μL of PRP (5×10^8 platelets/mL) were added to each micro test tube, and transmittance was set to 0%. 20 μl of ADP (10 μM) was added to each tube, and the aggregation profiles were plotted (% transmittance versus time). Test agent (20 μL) was added at different concentrations prior to the addition of the platelet agonist. Results are expressed as % inhibition of agonist-induced platelet aggregation.

[2] = system: Platelet Aggregation; assay: In Vivo Platelet Aggregation Inhibition in Dog; settings: IV
[3] = biological target: T1, αv /β3 receptor (Homo sapiens, UniProt P05106+P06756); assay: αv/β3-Biotinylated Vitronectin Binding Assay; settings: for pIC50: inhibition of vitronectin binding to purified αv/β3; for Relative Binding Affinity for αv /β3 Relative to GPIIb/IIIa: ratio of IC50 values (GPIIb/IIIa over αv/β3)
T1 construct: The αv /β3 receptor was isolated from human placental extracts prepared using octylglucoside; from tissue
T1 sequence (P06756 31-889 limits assumed): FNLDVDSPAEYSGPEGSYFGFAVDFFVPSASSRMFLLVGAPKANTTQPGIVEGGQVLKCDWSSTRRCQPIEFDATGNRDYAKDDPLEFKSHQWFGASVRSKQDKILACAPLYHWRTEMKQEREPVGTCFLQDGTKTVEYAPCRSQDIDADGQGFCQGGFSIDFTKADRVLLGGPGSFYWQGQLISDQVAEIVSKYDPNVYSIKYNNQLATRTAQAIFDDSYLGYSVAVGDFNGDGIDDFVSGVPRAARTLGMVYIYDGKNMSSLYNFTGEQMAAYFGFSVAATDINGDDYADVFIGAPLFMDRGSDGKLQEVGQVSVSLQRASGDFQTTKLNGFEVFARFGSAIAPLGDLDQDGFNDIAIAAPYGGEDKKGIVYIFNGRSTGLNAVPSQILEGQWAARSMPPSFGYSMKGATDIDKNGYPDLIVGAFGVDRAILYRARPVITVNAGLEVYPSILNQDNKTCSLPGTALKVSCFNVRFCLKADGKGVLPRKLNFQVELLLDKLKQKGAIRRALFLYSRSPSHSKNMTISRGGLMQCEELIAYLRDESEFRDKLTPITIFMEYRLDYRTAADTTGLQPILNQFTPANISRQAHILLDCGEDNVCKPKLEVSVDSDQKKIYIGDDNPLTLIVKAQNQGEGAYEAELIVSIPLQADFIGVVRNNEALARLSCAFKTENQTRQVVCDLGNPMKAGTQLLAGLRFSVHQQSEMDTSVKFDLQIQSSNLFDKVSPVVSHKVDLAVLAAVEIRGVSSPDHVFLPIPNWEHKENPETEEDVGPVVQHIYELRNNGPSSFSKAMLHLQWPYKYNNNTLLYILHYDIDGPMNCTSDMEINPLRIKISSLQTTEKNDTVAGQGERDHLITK
T1 sequence (P06756 891-1048 partner limits assumed): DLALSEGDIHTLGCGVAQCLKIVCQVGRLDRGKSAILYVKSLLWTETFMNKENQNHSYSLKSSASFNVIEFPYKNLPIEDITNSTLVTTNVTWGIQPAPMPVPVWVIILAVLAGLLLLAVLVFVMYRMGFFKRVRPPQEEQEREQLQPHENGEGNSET
T1 sequence (P05106 27-788): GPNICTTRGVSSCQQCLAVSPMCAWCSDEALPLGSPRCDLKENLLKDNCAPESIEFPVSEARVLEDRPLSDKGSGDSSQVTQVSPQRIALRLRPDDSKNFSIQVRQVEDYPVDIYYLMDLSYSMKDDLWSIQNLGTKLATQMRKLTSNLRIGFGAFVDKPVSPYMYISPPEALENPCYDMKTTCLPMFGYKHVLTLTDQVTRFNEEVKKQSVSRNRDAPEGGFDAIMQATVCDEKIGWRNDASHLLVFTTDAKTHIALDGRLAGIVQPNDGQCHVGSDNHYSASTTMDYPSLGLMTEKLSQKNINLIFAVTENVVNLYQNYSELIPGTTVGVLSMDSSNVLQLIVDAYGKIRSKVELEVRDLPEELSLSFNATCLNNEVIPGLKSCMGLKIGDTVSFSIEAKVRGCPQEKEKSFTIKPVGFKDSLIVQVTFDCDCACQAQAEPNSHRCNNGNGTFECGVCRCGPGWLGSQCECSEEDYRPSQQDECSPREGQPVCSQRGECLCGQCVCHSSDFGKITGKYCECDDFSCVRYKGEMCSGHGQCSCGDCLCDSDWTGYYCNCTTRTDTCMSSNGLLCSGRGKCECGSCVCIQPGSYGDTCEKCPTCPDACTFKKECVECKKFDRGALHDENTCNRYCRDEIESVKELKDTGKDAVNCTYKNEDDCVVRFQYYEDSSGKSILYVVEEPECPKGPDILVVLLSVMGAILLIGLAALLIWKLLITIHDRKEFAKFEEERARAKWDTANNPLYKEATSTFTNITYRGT
Source text: Compounds may be tested for their ability to block binding of vitronectin to the αv /β3 receptor and to block the binding of fibrinogen to GPIIb/IIIa receptor in the αv /β3 -Biotinylated Vitronectin Binding Assay and GPIIb/IIIa Receptor-Biotinylated Fibrinogen Binding Assay described below.
αv /β3 -Biotinylated Vitronectin Binding Assay
The αv /β3 receptor was isolated from human placental extracts prepared using octylglucoside. The extract was passed over an anti-αv /β3 monoclonal antibody (LM609) affinity column (prepared using LM609 and Affigel 10). The column was subsequently washed extensively at pH 7 and pH 4.5 followed by elution at pH 3. The resulting sample was concentrated by wheat germ agglutinin chromatography to provide a αv /β3 -containing sample which gave two bands on SDS-PAGE which were confirmed as αv /β3 by western blotting.
The affinity purified αv /β3 protein as described above was diluted at different levels and plated to 96 well plates (about 15 ng of αv /β3 protein per well). ELISA detection of αv /β3 -bound biotinylated vitronectin was performed as described below using fixed concentration of biotinylated vitronectin (approximately 80 nM/well). This αv /β3 receptor preparation contains the αv /β3 with no detectable levels of αv /β5 according to the gel and according to effects of blocking antibodies for the αv /β3 or αv /β5 in the ELISA.
A submaximal concentration of biotinylated vitronectin was selected based on concentration response curves with fixed αv /β3 receptor concentration and variable concentrations of biotinylated vitronectin.
The purified αv /β3 receptor is diluted with coating buffer (20 mM Tris HCl, 150 mM NaCl, 2.0 mM CaCl2, 1.0 mM MgCl2.6H2 O, 1.0 mM MnCl2.4H2 O) and coated (100 μL/well) on Costar (3590) high capacity 96-well plates overnight at 4° C. The coating solution is discarded and the plates washed once with blocking/binding buffer (B/B buffer: 50 mM Tris HCl, 100 mM NaCl, 2.0 mM CaCl2, 1.0 mM MgCl2.6H2 O, 1.0 mM MnCl2.4H2 O). The plate-immobilized αv /β3 receptor is then blocked (200 μl/well) with 3.5% BSA in B/B buffer for 2 hours at room temperature. After washing once with 1.0% BSA in B/B buffer, biotinylated vitronectin (100 μL) and either test compound (inhibitor) (11 μL) or B/B buffer w/1.0% BSA (11 μL) is added to each well. The plates are incubated 2 hours at room temperature. The plates are washed twice with B/B buffer and incubated 1 hour at room temperature with anti-biotin alkaline phosphatase (100 μL/well) in B/B buffer containing 1.0% BSA. The plates are washed twice with B/B buffer and alkaline phosphatase substrate (100 μL) is added. Color is developed at room temperature. Color development is stopped by addition of 2N NaOH (25 μL/well) and absorbance is read at 405 nm.
The inhibitory binding constant (Ki) of test agents 30 may be calculated under this assay system using Michaelis-Menten analysis. The IC50 is the concentration of test substance needed to block 50% of the vitronectin binding to the αv /β3 receptor. The IC50 for the inhibition of binding of vitronectin to the αv /β3 receptor was determined based on time averaged values for the inhibition of vitronectin binding. Thus, the inhibition of vitronectin binding for each concentration of test compound was measured every 30 seconds over a 2 hour period and the average value of inhibition of vitronectin binding over such 2 hour period was used for the determination of the IC50.

Row | SMILES | pIC50 [1] | Platelet Aggregation Inhibition (%) ([2]; 1 mg/kg) | Platelet Aggregation Inhibition (%) ([2]; 3 mg/kg) | Platelet Aggregation Inhibition (%) ([2]; 10 mg/kg) | pIC50 [3] | Relative Binding Affinity for αv /β3 Relative to GPIIb/IIIa [3]
1 | C[C@@H]1NC(=O)c2cccc(c2)CNC(=O)[C@H](CC(=O)O)NC(=O)CNC(=O)[C@H](CCCNC(=N)N)NC1=O [Compound A, cyclo-(Ala-Arg-Gly-Asp-Mamb)] (cyclo(RGD[3Amb]A)) | 4.74 | 0-10% | 10-20% | 30-50% | 8.42 | 107
2 | N=C(N)NCCC[C@@H]1NC(=O)[C@@H]2CCCN2C(=O)c2cccc(c2)CNC(=O)[C@H](CC(=O)O)NC(=O)CNC1=O [Compound B, cyclo-(Pro-Arg-Gly-Asp-Mamb)] (cyclo(RGD[3Amb]P)) | 4.36 | 0-10% | 0-10% | 10-20% | 9.15 | 2171
